Laboratory results published in PubChem BioAssay AID2060884 (Molecular Pharmacology Branch, DTP, NCI, 2025).

System: NCI-H929 complex spheroids, viability % test/control
Assay: Anticancer human tumor NCI-H929 cell line growth inhibition [RAS];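 also: compound exposure lasted seven days before viability was read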;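 as to viability, T/C: 100% = DMSO vehicle control viability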
Details: for IC50: curve of first compound; for viability, T/C: stronger effect = lower value
In short: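 Agents were tested in combination matrices in half-log decrements from a top concentration at or near clinical Cmax (10 microM if undetermined). Targets were multi-cell spheroids of tumour lines plus HUVEC and MSC stromal cells.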

[1] = second compound 0.00316 µM, first compound 0.0316 µM
[2] = second compound 0.00316 µM, first compound 0.1 µM
[3] = second compound 0.00316 µM, first compound 0.316 µM
[4] = second compound 0.00316 µM, first compound 1 µM
[5] = second compound 0.00316 µM, first compound 3.16 µM
[6] = second compound 0.00316 µM, first compound 10 µM
[7] = second compound 0.01 µM, first compound 0.0316 µM
[8] = second compound 0.01 µM, first compound 0.1 µM
[9] = second compound 0.01 µM, first compound 0.316 µM
[10] = second compound 0.01 µM, first compound 1 µM
[11] = second compound 0.01 µM, first compound 3.16 µM
[12] = second compound 0.01 µM, first compound 10 µM
[13] = second compound 0.0316 µM, first compound 0.0316 µM
[14] = second compound 0.0316 µM, first compound 0.1 µM
[15] = second compound 0.0316 µM, first compound 0.316 µM
[16] = second compound 0.0316 µM, first compound 1 µM
[17] = second compound 0.0316 µM, first compound 3.16 µM
[18] = second compound 0.0316 µM, first compound 10 µM
[19] = second compound 0.1 µM, first compound 0.0316 µM
[20] = second compound 0.1 µM, first compound 0.1 µM
[21] = second compound 0.1 µM, first compound 0.316 µM
[22] = second compound 0.1 µM, first compound 1 µM
[23] = second compound 0.1 µM, first compound 3.16 µM
[24] = second compound 0.1 µM, first compound 10 µM
[25] = second compound 0.316 µM, first compound 0.0316 µM
[26] = second compound 0.316 µM, first compound 0.1 µM
[27] = second compound 0.316 µM, first compound 0.316 µM
[28] = second compound 0.316 µM, first compound 1 µM
[29] = second compound 0.316 µM, first compound 3.16 µM
[30] = second compound 0.316 µM, first compound 10 µM
[31] = second compound 1 µM, first compound 0.0316 µM
[32] = second compound 1 µM, first compound 0.1 µM
[33] = second compound 1 µM, first compound 0.316 µM
[34] = second compound 1 µM, first compound 1 µM
[35] = second compound 1 µM, first compound 3.16 µM
[36] = second compound 1 µM, first compound 10 µM

Cc1nc(N2CCC3(CC2)COC(C)C3N)c(CO)nc1Sc1ccnc(N)c1Cl (centres undefined) + C=CC(=O)N1CCN(c2nc(OCC3CCCN3C)nc3c(F)c(-c4nc(N)cc(C)c4C(F)(F)F)c(Cl)cc23)C(C)C1
IC50 (second compound 0.00316 µM): > 10 µM | IC50 (second compound 0.01 µM): > 10 µM | IC50 (second compound 0.0316 µM): > 10 µM | IC50 (second compound 0.1 µM): > 10 µM | IC50 (second compound 0.316 µM): > 10 µM | IC50 (second compound 1 µM): > 10 µM | viability, T/C [1]: 97.9% | viability, T/C [2]: 94.5% | viability, T/C [3]: 97.1% | viability, T/C [4]: 94.4% | viability, T/C [5]: 101% | viability, T/C [6]: 98.3% | viability, T/C [7]: 95.8% | viability, T/C [8]: 96% | viability, T/C [9]: 99.8% | viability, T/C [10]: 96.5% | viability, T/C [11]: 101% | viability, T/C [12]: 102% | viability, T/C [13]: 95.7% | viability, T/C [14]: 102% | viability, T/C [15]: 100% | viability, T/C [16]: 99.3% | viability, T/C [17]: 102% | viability, T/C [18]: 102% | viability, T/C [19]: 95.6% | viability, T/C [20]: 101% | viability, T/C [21]: 100% | viability, T/C [22]: 102% | viability, T/C [23]: 104% | viability, T/C [24]: 99.7% | viability, T/C [25]: 101% | viability, T/C [26]: 101% | viability, T/C [27]: 103% | viability, T/C [28]: 100% | viability, T/C [29]: 102% | viability, T/C [30]: 104% | viability, T/C [31]: 104% | viability, T/C [32]: 105% | viability, T/C [33]: 105% | viability, T/C [34]: 105% | viability, T/C [35]: 109% | viability, T/C [36]: 103%

CC(Nc1ccc2c(c1)OCCn1cc(N3C(=O)OCC3C(F)F)nc1-2)C(N)=O (centres undefined) + C=CC(=O)N1CCN(c2nc(OCC3CCCN3C)nc3c(F)c(-c4nc(N)cc(C)c4C(F)(F)F)c(Cl)cc23)C(C)C1
IC50 (second compound 0.00316 µM): > 10 µM | IC50 (second compound 0.01 µM): > 10 µM | IC50 (second compound 0.0316 µM): > 10 µM | IC50 (second compound 0.1 µM): > 10 µM | IC50 (second compound 0.316 µM): > 10 µM | IC50 (second compound 1 µM): 8.11 µM | viability, T/C [1]: 99% | viability, T/C [2]: 103% | viability, T/C [3]: 112% | viability, T/C [4]: 107% | viability, T/C [5]: 110% | viability, T/C [6]: 61.1% | viability, T/C [7]: 94.8% | viability, T/C [8]: 103% | viability, T/C [9]: 107% | viability, T/C [10]: 112% | viability, T/C [11]: 102% | viability, T/C [12]: 64.3% | viability, T/C [13]: 98% | viability, T/C [14]: 106% | viability, T/C [15]: 111% | viability, T/C [16]: 114% | viability, T/C [17]: 112% | viability, T/C [18]: 64.6% | viability, T/C [19]: 97.8% | viability, T/C [20]: 104% | viability, T/C [21]: 113% | viability, T/C [22]: 113% | viability, T/C [23]: 113% | viability, T/C [24]: 66.1% | viability, T/C [25]: 102% | viability, T/C [26]: 107% | viability, T/C [27]: 112% | viability, T/C [28]: 112% | viability, T/C [29]: 112% | viability, T/C [30]: 77.5% | viability, T/C [31]: 103% | viability, T/C [32]: 110% | viability, T/C [33]: 114% | viability, T/C [34]: 115% | viability, T/C [35]: 110% | viability, T/C [36]: 36.7%
